Where two headings read alike, the source gives them in different places.

For orientation: inhibition means the relative decrease from the control value, in per cent.

The subject of one assay is Kasumi-1. Kind of assay: CCK-8 proliferation, Kasumi-1. The note with it: Homo sapiens, Kasumi 1, 72 hours, read-out: Inhibitory activity (IC50) on tumor cell proliferation, Kasumi-1. It is filed as cell-based, Human. The method, boiled down:
(§1)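 Tumor cells were cultured at 37°C with 5% CO2, seeded, and after 24h treated with compounds at 10 concentrations starting at 10µM (5-fold serial dilutions).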

A further assay concerns H1975. Kind of assay: CCK-8 proliferation, NCI-H1975 (H1975). The note with it: Homo sapiens, read-out: Inhibitory activity (IC50) on tumor cell proliferation, H1975. It is filed as cell-based, Human. The method, boiled down:
as §1

The subject of a further assay is MV-4-11. Kind of assay: CCK-8 proliferation, MV-4-11. The format is cell-based, Human. The note with it: Homo sapiens, MV4-11; CCK-8; 72 or 96 hours; read-out: Inhibitory activity (IC50) on tumor cell proliferation, MV-4-11. The method, boiled down:
as §1

The subject of another assay is 22RV1. The assay can be described thus: CCK-8 proliferation, 22RV1. The note with it: Homo sapiens, 96 hours, read-out: Inhibitory activity (IC50) on tumor cell proliferation, 22RV1. The format is cell-based. The procedure:
The tumor cells used herein were cultured in a cell culture medium listed in table A1 at 37°C in an incubator with 5% CO2. Prior to experimentation, all cell lines used were correctly identified by STR profiling, and tested negative for mycoplasma contamination using a mycoplasma detection kit through routine screenings. Table A1. Tumor cells and cell culture medium used in the present disclosure
IC50 values of the compounds of the present disclosure (including the compounds in Table 1, and compounds of examples) were measured using the Meilun Cell Counting Kit-8 kit from Dalian Meilun Biotech Co., Ltd. Assay details are as follows: tumor cells were seeded in a 96-well plate at a density listed in Table A2. After 24h, 100 µL of the inoculated cells were treated with 0.5µL of the compounds of the present disclosure (including the compounds in Tables 1 and 2, and compounds of examples) at 10 different successively decreasing concentrations (starting at the highest concentration of 10µM; 5-fold serial dilutions). After the cells were treated with the compounds of the present disclosure for a period of time, the cell viability detection reagent was added to the culture medium for cell viability assessment according to the instructions provided with the CCK-8 kit. […] The growth inhibition of the compounds of the present disclosure on cells was plotted by Prism Graphpad software, and the IC50 values of the compounds of the present disclosure were calculated therefrom. […] Seeding protocol and treatment time for tumor cells

The next assay relates to MM.1S. Kind of assay: CCK-8 proliferation, MM.1S. It is filed as cell-based. The conditions noted are these: Homo sapiens, MM1.S; CCK-8; 72 hours; read-out: Inhibitory activity (IC50) on tumor cell proliferation, MM1S. The method, boiled down: as §1
For the next assay, the system named is CCRF-CEM. The assay can be described thus: CCK-8 proliferation, CCRF-CEM. The format is cell-based, Human. The conditions noted are these: Homo sapiens, CCRF-CEM; CCK-8; 96 hours; read-out: Inhibitory activity (IC50) on tumor cell proliferation, CCRF-CEM. The method, boiled down:
as §1

The test system of another assay is SR. Kind of assay: CCK-8 proliferation, SR. It is filed as cell-based, Human. The conditions noted are these: Homo sapiens, SR; CCK-8; 72 hours; read-out: Inhibitory activity (IC50) on tumor cell proliferation, SR. The method, boiled down:
as §1

Another assay relates to MCF7. The assay can be described thus: CCK-8 proliferation, MCF7 (MCF-7). The note with it: Homo sapiens, MCF7; CCK-8; read-out: Inhibitory activity (IC50) on tumor cell proliferation, MCF7. The format is cell-based. The essentials:
as §1

In a further assay the target is T1, CDK4 (Homo sapiens, UniProt P11802).
T1 construct: evaluate the effects of the compounds of the present disclosure on the expression of target proteins in cells; endogenous in cells; host or cells: MDA-MB-231
The assay can be described thus: Western blot degradation of CDK4 (MDA-MB-231 Cell). It is filed as cell-based. The note with it: Table D3. The essentials:
(§2)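 After compound exposure, cells were harvested and lysates run on SDS-PAGE, transferred to nitrocellulose and probed with antibodies. Remaining target (%) was computed from band grayscale relative to an internal control protein and normalised; degradation (%) was 100% minus that.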
A general note: In western blotting, separated proteins are transferred to a membrane and probed.

In a further assay the target is T2, CDK6 (Homo sapiens, UniProt Q00534).
T2 construct: evaluate the effects of the compounds of the present disclosure on the expression of target proteins in cells; endogenous in cells; host or cells: MDA-MB-231
The assay can be described thus: Western blot degradation of CDK6 (MDA-MB-231 Cell). The format is cell-based. The conditions noted are these: Table D3. The essentials: as §2

Assay [1] addresses T3, human Cereblon WT GST-tagged protein (Homo sapiens, UniProt Q96SW2).
T3 construct: purchased CISBIO 64BDCRBNPEH
The assay can be described thus: CRBN binding, HTRF (CEREBLON BINDING kit). The conditions noted are these: Table II-2, CRBN binding screening, HTRF. The essentials:
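After 3 h at room temperature, emission at 665 and 620 nm was measured in a homogeneous time-resolved fluorescence format. Compounds competed with a Thalidomide-Re probe for GST-tagged wild-type human CRBN, which was labelled with a Eu anti-GST antibody.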

T2 sequence (Q00534 whole entry): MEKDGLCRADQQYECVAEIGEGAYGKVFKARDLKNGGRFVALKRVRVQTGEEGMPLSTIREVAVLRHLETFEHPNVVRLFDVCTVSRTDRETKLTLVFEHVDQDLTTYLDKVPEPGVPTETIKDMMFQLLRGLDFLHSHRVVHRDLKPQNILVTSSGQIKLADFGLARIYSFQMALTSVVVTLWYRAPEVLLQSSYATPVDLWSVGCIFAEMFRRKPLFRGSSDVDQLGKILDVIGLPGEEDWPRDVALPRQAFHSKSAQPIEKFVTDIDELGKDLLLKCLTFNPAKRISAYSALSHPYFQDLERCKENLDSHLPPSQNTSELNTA
T1 sequence (P11802 whole entry): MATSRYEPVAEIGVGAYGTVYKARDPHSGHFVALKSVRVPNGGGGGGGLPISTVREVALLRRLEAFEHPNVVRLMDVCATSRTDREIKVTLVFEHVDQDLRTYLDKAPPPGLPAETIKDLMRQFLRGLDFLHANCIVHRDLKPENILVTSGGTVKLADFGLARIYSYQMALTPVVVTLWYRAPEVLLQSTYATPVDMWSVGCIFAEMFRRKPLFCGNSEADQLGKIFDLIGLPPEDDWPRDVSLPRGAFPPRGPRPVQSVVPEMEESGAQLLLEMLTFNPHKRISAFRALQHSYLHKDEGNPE
T3 sequence (Q96SW2 whole entry): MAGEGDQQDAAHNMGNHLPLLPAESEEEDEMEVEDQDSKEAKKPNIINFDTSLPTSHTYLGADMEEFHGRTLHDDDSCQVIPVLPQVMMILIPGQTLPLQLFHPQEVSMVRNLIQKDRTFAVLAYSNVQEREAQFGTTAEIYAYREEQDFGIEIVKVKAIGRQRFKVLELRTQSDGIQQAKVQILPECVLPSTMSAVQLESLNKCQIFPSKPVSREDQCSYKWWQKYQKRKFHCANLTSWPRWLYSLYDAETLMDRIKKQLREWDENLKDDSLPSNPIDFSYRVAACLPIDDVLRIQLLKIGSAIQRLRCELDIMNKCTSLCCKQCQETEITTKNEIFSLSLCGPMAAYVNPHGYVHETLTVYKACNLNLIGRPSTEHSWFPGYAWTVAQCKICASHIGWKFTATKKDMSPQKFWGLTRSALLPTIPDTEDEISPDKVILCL

For the compound `CCN1CCN(Cc2ccc(Nc3ncc(F)c(-c4cc(F)c5nc(C)n(C(C)C)c5c4)n3)nc2)CC1` [abemaciclib, reference compound], the IC50 was 500 to 1000 nM in the assay with Kasumi-1; 1000 to 5000 nM in the assay on H1975 (NCI-H1975, 96 h); 50 to 100 nM in the assay on MV-4-11; 10 to 50 nM in the assay with 22RV1; 1000 to 5000 nM with MM.1S; 1000 to 5000 nM with CCRF-CEM. For the same compound, the IC50 in the assay on SR was in the range of 500 to 1000 nM; in the assay on MCF7, 1000 to 5000 nM.

Turning to `Cc1nc2c(F)cc(-c3nc(Nc4ccc(CN5CCN(Cc6ccc(N7CCC(=O)NC7=O)cc6)CC5)cn4)ncc3F)cc2n1C(C)C` [GT-06665, 1-(4-((4-((6-((5-fluoro-4-(4-fluoro-1-isopropyl-2-methyl-1H-benzo[d]imidazol-6-yl)pyrimidin-2-yl)amino)pyridin-3-yl)methyl)piperazin-1-yl)methyl)phenyl)dihydropyrimidine-2,4(1H,3H)-dione], the “Degradation of substrate protein CDK4 (substrate protein remaining %)” value at CDK4 is “A (A is defined as 0% ≤ substrate protein remaining % ≤ 80%)”. The IC50 with Kasumi-1 lay within 100 to 500 nM; in the assay on H1975 (NCI-H1975, CCK-8, 96 hours), 100 to 500 nM; with MV-4-11 it was 10 to 50 nM; with 22RV1, 10 to 50 nM; in the assay with CCRF-CEM, 500 to 1000 nM; with SR, 100 to 500 nM. Further, in the assay with MCF7, the IC50 fell in the range of 100 to 500 nM. Besides, the “Degradation of substrate protein CDK6 (substrate protein remaining %)” value at CDK6 is given as “A (A is defined as 0% ≤ substrate protein remaining % ≤ 80%)”.

For `CC(=O)c1c(C)c2cnc(Nc3ccc(N4CCC(N5CCN(Cc6ccc(C7CCC(=O)NC7=O)cc6)CC5)CC4)cn3)nc2n(C2CCCC2)c1=O` (stereo not shown) [GT-06659, 3-(4-((4-(1-(6-((6-acetyl-8-cyclopentyl-5-methyl-7-oxo-7,8-dihydropyrido[2,3-d]pyrimidin-2-yl)amino)pyridin-3-yl)piperidin-4-yl)piperazin-1-yl)methyl)phenyl)piperidine-2,6-dione], the “Degradation of substrate protein CDK4 (substrate protein remaining %)” value on CDK4 is “A (A is defined as 0% ≤ substrate protein remaining % ≤ 80%)”. The IC50 in the assay with Kasumi-1 was in the range of 100 to 500 nM; with MV-4-11, 100 to 500 nM; with 22RV1, 10 to 50 nM; in the assay on CCRF-CEM it was 100 to 500 nM; with MCF7, 100 to 500 nM. The “Degradation of substrate protein CDK6 (substrate protein remaining %)” value on CDK6 is reported as “A (A is defined as 0% ≤ substrate protein remaining % ≤ 80%)”.

For `Cc1nc2c(F)cc(-c3nc(Nc4ccc(CN5CCN(Cc6ccc(N7CCC(=O)NC7=O)cn6)CC5)cn4)ncc3F)cc2n1C(C)C` [GT-06667, 1-(6-((4-((6-((5-fluoro-4-(4-fluoro-1-isopropyl-2-methyl-1H-benzo[d]imidazol-6-yl)pyrimidin-2-yl)amino)pyridin-3-yl)methyl)piperazin-1-yl)methyl)pyridin-3-yl)dihydropyrimidine-2,4(1H,3H)-dione], at CDK4, the “Degradation of substrate protein CDK4 (substrate protein remaining %)” value is on record as “A (A is defined as 0% ≤ substrate protein remaining % ≤ 80%)”. Besides, the IC50 is 100 to 500 nM in the assay with Kasumi-1; 10 to 50 nM in the assay on MV-4-11; 50 to 100 nM in the assay with 22RV1; 100 to 500 nM in the assay with CCRF-CEM; 100 to 500 nM in the assay on SR; 100 to 500 nM with MCF7. Also, the “Degradation of substrate protein CDK6 (substrate protein remaining %)” value at CDK6 was “A (A is defined as 0% ≤ substrate protein remaining % ≤ 80%)”.

Consider `Cc1nc2c(F)cc(-c3nc(Nc4ccc(CN5CCN(Cc6ccc(C7CCC(=O)NC7=O)cc6)CC5)cn4)ncc3F)cc2n1C(C)C` (stereo not shown) [GT-06664, 3-(4-((4-((6-((5-fluoro-4-(4-fluoro-1-isopropyl-2-methyl-1H-benzo[d]imidazol-6-yl)pyrimidin-2-yl)amino)pyridin-3-yl)methyl)piperazin-1-yl)methyl)phenyl)piperidine-2,6-dione], for which the “Degradation of substrate protein CDK4 (substrate protein remaining %)” value at CDK4 is “A (A is defined as 0% ≤ substrate protein remaining % ≤ 80%)”. Also, the IC50 in the assay on Kasumi-1 fell in the range of 100 to 500 nM; with H1975 (NCI-H1975, CCK-8, 96 hours), 500 to 1000 nM; in the assay with MV-4-11, 10 to 50 nM; with 22RV1, 50 to 100 nM; with CCRF-CEM, 500 to 1000 nM; in the assay with SR it was 100 to 500 nM. In addition, the “Degradation of substrate protein CDK6 (substrate protein remaining %)” value at CDK6 is reported as “B (B is defined as substrate protein remaining % > 80%)”.

In the case of `Cc1nc2c(F)cc(-c3nc(Nc4ccc(N5CCC(N6CCN(Cc7ccc(N8CCC(=O)NC8=O)nc7)CC6)CC5)cn4)ncc3F)cc2n1C(C)C` [GT-06742, 1-(5-((4-(1-(6-((5-fluoro-4-(4-fluoro-1-isopropyl-2-methyl-1H-benzo[d]imidazol-6-yl)pyrimidin-2-yl)amino)pyridin-3-yl)piperidin-4-yl)piperazin-1-yl)methyl)pyridin-2-yl)dihydropyrimidine-2,4(1H,3H)-dione], the IC50 in the assay on Kasumi-1 was in the range of 100 to 500 nM; with H1975 (NCI-H1975, CCK-8, 96 hours), 100 to 500 nM; in the assay with MV-4-11, 10 to 50 nM; in the assay on 22RV1, 10 to 50 nM; in the assay on MM.1S, 100 to 500 nM; in the assay with CCRF-CEM, 50 to 100 nM. Moreover, the IC50 in the assay on SR and in the assay with MCF7 was 10 to 50 nM each time.

As to `Cc1nc2c(F)cc(-c3nc(Nc4ccc(N5CCC(N(C)Cc6ccc(C7CCC(=O)NC7=O)cc6)CC5)cn4)ncc3F)cc2n1C(C)C` (stereo not shown) [GT-06735, 3-(4-(((1-(6-((5-fluoro-4-(4-fluoro-1-isopropyl-2-methyl-1H-benzo[d]imidazol-6-yl)pyrimidin-2-yl)amino)pyridin-3-yl)piperidin-4-yl)(methyl)amino)methyl)phenyl)piperidine-2,6-dione], on CDK4, the “Degradation of substrate protein CDK4 (substrate protein remaining %)” value is reported as “A (A is defined as 0% ≤ substrate protein remaining % ≤ 80%)”. Besides, the IC50 with Kasumi-1 fell in the range of 100 to 500 nM; in the assay with H1975 (NCI-H1975, CCK-8, 96 hours), 100 to 500 nM; in the assay on MV-4-11, 10 to 50 nM; in the assay with 22RV1, 10 to 50 nM; in the assay with MM.1S, 100 to 500 nM; in the assay on CCRF-CEM it was 100 to 500 nM. Further, the IC50 in the assay on SR fell in the range of 50 to 100 nM. At CDK6, the “Degradation of substrate protein CDK6 (substrate protein remaining %)” value is listed as “A (A is defined as 0% ≤ substrate protein remaining % ≤ 80%)”.

With `Cc1nc2c(F)cc(-c3nc(Nc4ccc(N5CCC(N6CCN(Cc7ccnc(N8CCC(=O)NC8=O)c7)CC6)CC5)cn4)ncc3F)cc2n1C(C)C` [GT-07487, 1-(4-((4-(1-(6-((5-fluoro-4-(4-fluoro-1-isopropyl-2-methyl-1H-benzo[d]imidazol-6-yl)pyrimidin-2-yl)amino)pyridin-3-yl)piperidin-4-yl)piperazin-1-yl)methyl)pyridin-2-yl)dihydropyrimidine-2,4(1H,3H)-dione], in [1] (at 0.5µM, read-out: Inhibition rate (%) at 0.5µM), the inhibition at 0.5 µM fell in the range of 30 to 40%. In [1] (at 2 µM, read-out: Inhibition rate (%) at 2 µM), the inhibition at 2 µM lay within 53 to 60%. Further, the IC50 in the assay on H1975 (NCI-H1975, CCK-8, 96 hours) lay within 50 to 100 nM; with 22RV1, 10 to 50 nM; with MM.1S, 10 to 50 nM; in the assay on CCRF-CEM, 50 to 100 nM; in the assay on MCF7, 10 to 50 nM.
